Seven compounds from ChEMBL document CHEMBL1142151, “Association of QnrB determinants and production of extended-spectrum beta-lactamases or plasmid-mediated AmpC beta-lactamases in clinical isolates of Klebsiella pneumoniae” (2007) can be followed below.

Holding throughout (type): functional
In assay [1] the test system is Escherichia coli. The assay is described as follows: Inhibitory activity against Escherichia coli 12-1502.
In assay [2] the test system is Klebsiella pneumoniae. Description: Inhibitory activity against Klebsiella pneumoniae 12-1183.
The subject of assay [3] is Klebsiella pneumoniae. Description: Inhibitory activity against Klebsiella pneumoniae 35.
The subject of assay [4] is Escherichia coli. Description: Inhibitory activity against azide-resistant Escherichia coli J53 T35.
For assay [5], the system named is Klebsiella pneumoniae. The assay is described as follows: Inhibitory activity against Klebsiella pneumoniae 07-006.
The subject of assay [6] is Escherichia coli. The assay is described as follows: Inhibitory activity against azide-resistant Escherichia coli J53 T07-006.
The subject of assay [7] is Klebsiella pneumoniae. The assay is described as follows: Inhibitory activity against Klebsiella pneumoniae 03-222.
Assay [8] deals with Escherichia coli. Description: Inhibitory activity against azide-resistant Escherichia coli J53 T03-222.
The test system of assay [9] is Escherichia coli. Description: Inhibitory activity against azide-resistant Escherichia coli J53 T12-1502.
In assay [10] the test system is Escherichia coli. Description: Inhibitory activity against azide-resistant Escherichia coli J53.
Assay [11] concerns Escherichia coli. The assay is described as follows: Inhibitory activity against azide-resistant Escherichia coli J53 T12-1183.

≈ marks a conversion by molar mass, not a printed value.

On to `C[C@H]1COc2c(N3CCN(C)CC3)c(F)cc3c(=O)c(C(=O)O)cn1c23.C[C@H]1COc2c(N3CCN(C)CC3)c(F)cc3c(=O)c(C(=O)O)cn1c23.O` [LEVOFLOXACIN], for which the MIC (commonly the lowest concentration found to suppress growth) in the assay on Escherichia coli [1] was 0.25 µg/mL; against Klebsiella pneumoniae [2] it was above 16 µg/mL; in the assay on Klebsiella pneumoniae [3] it was 4 µg/mL; in the assay on Escherichia coli [4] it was 0.25 µg/mL; against Klebsiella pneumoniae [5], 8 µg/mL; in the assay on Escherichia coli [6] it was 0.25 µg/mL. Further, the results for the minimal inhibitory concentration (MIC) against Klebsiella pneumoniae [7], with Escherichia coli [8] and with Escherichia coli [9] were 16 µg/mL, 0.25 µg/mL and 0.25 µg/mL, respectively.

For the compound `O=C(O)c1cn(C2CC2)c2cc(N3CCNCC3)c(F)cc2c1=O` [CIPROFLOXACIN], the MIC was above 16 µg/mL against Klebsiella pneumoniae [2], 16 µg/mL (≈ 48.3 µM) against Klebsiella pneumoniae [3], 16 µg/mL (≈ 48.3 µM) with Klebsiella pneumoniae [5] and 16 µg/mL (≈ 48.3 µM) in the assay on Klebsiella pneumoniae [7].

Regarding `CO[C@@]1(NC(=O)Cc2cccs2)C(=O)N2C(C(=O)O)=C(COC(N)=O)CS[C@@H]21` [CEFOXITIN], the MIC in the assay with Escherichia coli [10] was 4 µg/mL (≈ 9.36 µM); against Escherichia coli [1], above 128 µg/mL; with Klebsiella pneumoniae [2] it was above 128 µg/mL; in the assay with Escherichia coli [11], 32 µg/mL (≈ 74.9 µM); against Klebsiella pneumoniae [3], 32 µg/mL (≈ 74.9 µM); against Escherichia coli [4], 4 µg/mL (≈ 9.36 µM). The minimum inhibitory concentration (MIC) with Klebsiella pneumoniae [5] was 16 µg/mL (≈ 37.4 µM); against Escherichia coli [6], 4 µg/mL (≈ 9.36 µM); against Klebsiella pneumoniae [7], 16 µg/mL (≈ 37.4 µM); against Escherichia coli [8], 4 µg/mL (≈ 9.36 µM); against Escherichia coli [9], above 128 µg/mL.

On to `CC(C)(O/N=C(\C(=O)N[C@@H]1C(=O)N2C(C(=O)[O-])=C(C[n+]3ccccc3)CS[C@H]12)c1csc(N)n1)C(=O)O` [CEFTAZIDIME], for which the minimal inhibitory concentration (MIC) against Escherichia coli [10] was 1 µg/mL (≈ 1.83 µM); in the assay on Escherichia coli [1], 128 µg/mL (≈ 234 µM); against Klebsiella pneumoniae [2], 128 µg/mL (≈ 234 µM); in the assay on Escherichia coli [11], 128 µg/mL (≈ 234 µM); against Klebsiella pneumoniae [3], above 128 µg/mL; against Escherichia coli [4] it was 128 µg/mL (≈ 234 µM). The MIC stood at 128 µg/mL (≈ 234 µM) against Klebsiella pneumoniae [5]; 128 µg/mL (≈ 234 µM) against Escherichia coli [6]; 128 µg/mL (≈ 234 µM) with Klebsiella pneumoniae [7]; 64 µg/mL (≈ 117 µM) in the assay on Escherichia coli [8]; 64 µg/mL (≈ 117 µM) against Escherichia coli [9].

As for `COc1c(N2C[C@@H]3CCCN[C@@H]3C2)c(F)cc2c(=O)c(C(=O)O)cn(C3CC3)c12` [MOXIFLOXACIN], the minimal inhibitory concentration (MIC) was 0.5 µg/mL (≈ 1.25 µM) in the assay with Escherichia coli [1]; above 8 µg/mL in the assay with Klebsiella pneumoniae [2]; 1 µg/mL (≈ 2.49 µM) in the assay with Escherichia coli [11]; above 8 µg/mL against Klebsiella pneumoniae [3]; 0.5 µg/mL (≈ 1.25 µM) in the assay with Escherichia coli [4]; 8 µg/mL (≈ 19.9 µM) against Klebsiella pneumoniae [5]. The MIC was 1 µg/mL (≈ 2.49 µM) against Escherichia coli [6], 8 µg/mL (≈ 19.9 µM) in the assay on Klebsiella pneumoniae [7], 0.5 µg/mL (≈ 1.25 µM) with Escherichia coli [8] and 0.5 µg/mL (≈ 1.25 µM) against Escherichia coli [9].

`CCn1cc(C(=O)O)c(=O)c2ccc(C)nc21` [NALIDIXIC ACID]: the minimum inhibitory concentration (MIC) with Escherichia coli [10] was 8 µg/mL (≈ 34.4 µM); against Escherichia coli [1], 16 µg/mL (≈ 68.9 µM); against Klebsiella pneumoniae [2], above 64 µg/mL; in the assay on Escherichia coli [11] it was 32 µg/mL (≈ 138 µM); against Klebsiella pneumoniae [3], above 64 µg/mL; against Escherichia coli [4], 32 µg/mL (≈ 138 µM). For the same compound, the MIC in the assay on Klebsiella pneumoniae [5] was above 64 µg/mL; in the assay on Escherichia coli [6] it was 32 µg/mL (≈ 138 µM); in the assay with Klebsiella pneumoniae [7], above 64 µg/mL; in the assay with Escherichia coli [8], 32 µg/mL (≈ 138 µM); against Escherichia coli [9], 32 µg/mL (≈ 138 µM).

For `CO/N=C(\C(=O)N[C@@H]1C(=O)N2C(C(=O)O)=C(COC(C)=O)CS[C@H]12)c1csc(N)n1` [CEFOTAXIME], the minimal inhibitory concentration (MIC) in the assay on Escherichia coli [10] was below 0.25 µg/mL; with Escherichia coli [1], 64 µg/mL (≈ 141 µM); in the assay with Klebsiella pneumoniae [2] it was 16 µg/mL (≈ 35.1 µM); in the assay with Escherichia coli [11] it was 4 µg/mL (≈ 8.78 µM); against Klebsiella pneumoniae [3], above 128 µg/mL; in the assay on Escherichia coli [4], 16 µg/mL (≈ 35.1 µM). Also, the MIC came out at 64 µg/mL (≈ 141 µM) against Klebsiella pneumoniae [5]; 16 µg/mL (≈ 35.1 µM) with Escherichia coli [6]; 4 µg/mL (≈ 8.78 µM) with Klebsiella pneumoniae [7]; 2 µg/mL (≈ 4.39 µM) against Escherichia coli [8]; 64 µg/mL (≈ 141 µM) in the assay on Escherichia coli [9].
